Assay results published in US7932262B2 (Novartis AG, priority 2006, dated 2011).

Legend:
PDK1 kinase = biological target: T1, PDK1 kinase (Homo sapiens, UniProt O15530); test: PDK1 Kinase Alpha Screen Assay; assay type: biochemical; conditions: read-out: PDK1 IC50
T1 sequence (O15530 1-556): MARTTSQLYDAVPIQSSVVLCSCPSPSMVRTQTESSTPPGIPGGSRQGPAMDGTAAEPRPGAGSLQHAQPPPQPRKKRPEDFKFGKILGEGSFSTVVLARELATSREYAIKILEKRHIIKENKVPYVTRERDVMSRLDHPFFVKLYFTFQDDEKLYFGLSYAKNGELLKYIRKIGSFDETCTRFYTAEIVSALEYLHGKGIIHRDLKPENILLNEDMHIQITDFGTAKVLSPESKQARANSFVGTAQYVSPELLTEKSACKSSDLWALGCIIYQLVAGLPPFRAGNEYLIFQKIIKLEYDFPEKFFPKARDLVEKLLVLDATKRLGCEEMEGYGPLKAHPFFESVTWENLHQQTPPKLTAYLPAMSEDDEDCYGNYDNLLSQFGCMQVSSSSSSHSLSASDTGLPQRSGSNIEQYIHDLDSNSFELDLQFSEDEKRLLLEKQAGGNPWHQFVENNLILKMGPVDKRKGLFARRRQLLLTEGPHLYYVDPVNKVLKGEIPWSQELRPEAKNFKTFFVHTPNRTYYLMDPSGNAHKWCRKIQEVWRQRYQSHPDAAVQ
Summary of the method: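 AlphaScreen readout: phospho-peptide captured by phospho-(Ser/Thr) PKA substrate antibody (0.3 mg/ml) on protein A acceptor beads, biotin peptide on streptavidin donor beads (25 μg/ml each), overnight at room temperature. Kinase step used 50 nM PDK1-4 peptide, 10 uM ATP, 3-18 hours.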

A2780 cells = test: Cell Proliferation Assay (Cell Titer Glo), A2780; assay type: cell-based; conditions: Homo sapiens, 72 h; A2780 cells, 3 days incubation; read-out: CPEC50 A2780
Summary of the method: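 Following a 3-day compound exposure (37° C., 5% CO2) of A2780 or PC3MM cells plated at 1000 per well, viability was measured by Cell Titer Glo luminescence in fresh medium, read 10 min after reagent addition.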

PC-3 cells = test: Cell Proliferation Assay (Cell Titer Glo), PC-3 cell line; assay type: cell-based; conditions: Homo sapiens, PC-3, 72 h, PC-3 cells, 3 days incubation; read-out: CP EC50 PC3
Summary of the method: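 Cell Titer Glo luminescence, read after fresh medium replaced the dosing medium, gave viability of PC-3 cells plated at 1000 cells/well. Compounds, 1:3 serially diluted in DMSO at 500× and then in medium, were added after 3-5 h adhesion and incubated 3 days at 37° C.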

[1] = tested on: pAkt308 (phosphorylation of Akt at T308) in PC-3 cells; test: pAkt T308 ECL Assay in PC-3 cells; assay type: cell-based; conditions: Homo sapiens, 6 h, six hours with compound, read-out: PAKT308 PC3 IC50
Procedure: VI. The pAkt^T308 ECL Assay Protocol
On Day 1, PC-3 cells were seeded at 15,000 cells/well in 100 μL/well ([…]) growth media into black-walled, clear bottom, poly-L-lysine coated plates. The cells were incubated overnight in a 37° C., 5% CO2 incubator.
On Day 2, a MSD ECL plate was blocked for two hours with 150 μL per well of 3% MSD blocker A.
Test compounds were diluted to 500× in DMSO and then were subjected to further serial dilution using a BioMek 2000 instrument. DMSO diluted compounds were then diluted into growth media and then added to the cell plates.
The cell plates incubated with compounds for six hours in a 37° C., 5% CO2 incubator after which the growth medium was removed and 55 μl of MSD lysis buffer was added to cell plates on ice. The plates were lysed on ice for five minutes followed by 15 minutes of vigorous shaking on a plate shaker at 4° C. The blocked MSD assay plates were washed twice with 1×MSD wash buffer followed by the addition of cell lysate as follows: 30 μl of cell lysate was added to the pAkt308 plates and 13 μl of lysate+12 μl lysis buffer was added to the tAkt plates. The plates were then sealed and shaken at 4° C. overnight.
On Day 3, the MSD plates were washed four times with 1×MSD wash buffer then, 25 μl/well of MSD SULFO-TAG antibodies diluted to 10 nM final concentration in 1% blocker. A buffer was added to the antibody diluent which was added to assay plates. The plates were then sealed and incubated at RT for 1.5 hour. The plates were then washed twice with 1×MSD wash buffer followed by the addition of 150 μl/well of 1.5×MSD read buffer. The plates were read immediately after the addition of read buffer using a Trilux instrument. […]

| Compound | IC50 (PDK1 kinase) [µM] | EC50 (A2780 cells) [µM] | EC50 (PC-3 cells) [µM] | IC50 [1] [µM] |
| --- | --- | --- | --- | --- |
| CC(C)N1CCC(Oc2cccc3cnc(Nc4ccc(S(N)(=O)=O)cc4)nc23)CC1 [Compound 36, 4-[8-(1-Isopropyl-piperidin-4-yloxy)-quinazolin-2-ylamino]-benzenesulfonamide] | < 5 | < 5 | < 5 | < 5 |
| CN1C2CCC1CC(Oc1cccc3cnc(Nc4ccc(S(N)(=O)=O)cc4)nc13)C2 (stereo not drawn) [Compound 41, 4-[8-(8-Methyl-8-aza-bicyclo[3.2.1]oct-3-yloxy)-quinazolin-2-ylamino]-benzenesulfonamide] | < 5 | < 5 | < 5 | < 5 |
| O=S(=O)(c1ccc(Nc2ncc3cccc(OC4CCNCC4)c3n2)cc1)N1CCOCC1 [Compound 3, [4-(Morpholine-4-sulfonyl)-phenyl]-[8-(piperidin-4-yloxy)-quinazolin-2-yl]-amine] | < 5 | < 5 | < 5 | < 5 |
| NS(=O)(=O)c1ccc(Nc2ncc3cccc(O[C@@H]4CN5CCC4CC5)c3n2)cc1 [Compound 40, 4-[8-((S)-3-quinuclidinyloxy)-quinazolin-2-ylamino]-benzenesulfonamide] | < 5 | < 5 | < 5 | < 5 |
| NS(=O)(=O)c1ccc(Nc2ncc3ccc(-c4ccccc4)c(OC4CCNCC4)c3n2)cc1 [Compound 67, 4-[7-Phenyl-8-(piperidin-4-yloxy)-quinazolin-2-ylamino]-benzenesulfonamide] | < 5 | < 5 | < 5 | < 5 |
| Cn1cc(-c2ccc3cnc(Nc4ccc(S(N)(=O)=O)cc4)nc3c2)cn1 [Compound 136, 4-[7-(1-Methyl-1H-pyrazol-4-yl)-quinazolin-2-ylamino]-benzenesulfonamide] | < 5 | < 5 | < 5 | < 5 |
| O=S(=O)(NCCN1CCCC1)c1ccc(Nc2ncc3cccc(OC4CCNCC4)c3n2)cc1 [Compound 14, 4-[8-(Piperidin-4-yl-oxy)-quinazolin-2-ylamino]-N-(2-pyrrolidin-1-yl-ethyl)-benzenesulfonamide] | < 5 | < 5 | < 5 | 5 to 10 |
| NS(=O)(=O)c1ccc(Nc2ncc3ccc(-c4cccnc4)c(OC4CCNCC4)c3n2)cc1 [Compound 18, 4-[8-(Piperidin-4-yl-oxy)-7-pyridin-3-yl-quinazolin-2-ylamino]-benzenesulfonamide] | < 5 | < 5 |  | 5 to 10 |
| NS(=O)(=O)c1ccc(Nc2ncc3ccc(-c4cn[nH]c4)c(OC4CCNCC4)c3n2)cc1 [Compound 24, 4-[8-(Piperidin-4-yloxy)-7-(1H-pyrazol-4-yl)-quinazolin-2-ylamino]-benzenesulfonamide] | < 5 | < 5 |  | 5 to 10 |
| CC(C)N1CCC(Oc2ccc3cnc(Nc4ccc(S(N)(=O)=O)cc4)nc3c2)CC1 [Compound 42, 4-[7-(l-Isopropyl-piperidin-4-yloxy)-quinazolin-2-ylamino]-benzenesulfonamide] | < 5 | < 5 | < 5 | < 5 |
| CC(C)CN1CCC(Oc2cccc3cnc(Nc4ccc(S(N)(=O)=O)cc4)nc23)CC1 [Compound 45, 4-[8-(1-Isobutyl-piperidin-4-yloxy)-quinazolin-2-ylamino]-benzenesulfonamide] | < 5 | < 5 | < 5 | < 5 |
| NS(=O)(=O)c1ccc(Nc2ncc3ccc(-c4cccnc4)cc3n2)cc1 [Compound 133, 4-(7-Pyridin-3-yl-quinazolin-2-ylamino)-benzenesulfonamide] | < 5 | < 5 |  | < 5 |
| NS(=O)(=O)c1ccc(Nc2ncc3cccc(O[C@@H]4CCNC4)c3n2)cc1 [Compound 37, 4-[8-((R)-Pyrrolidin-3-yloxy)-quinazolin-2-ylamino]-benzenesulfonamide] | < 5 | < 5 |  | 5 to 10 |
| NS(=O)(=O)c1ccc(Nc2ncc3ccc(-c4ncco4)c(OC4CCNCC4)c3n2)cc1 [Compound 26, 4-[7-Oxazol-2-yl-8-(piperidin-4-yloxy)-quinazolin-2-ylamino]-benzenesulfonamide] | < 5 | < 5 |  | 5 to 10 |
| NS(=O)(=O)c1ccc(Nc2ncc3ccc(-c4ccccn4)c(OC4CCNCC4)c3n2)cc1 [Compound 28, 4-[8-(Piperidin-4-yloxy)-7-pyridin-2-yl-quinazolin-2-ylamino]-benzenesulfonamide] | < 5 | < 5 |  | 5 to 10 |
| COc1cncc(-c2ccc3cnc(Nc4ccc(S(N)(=O)=O)cc4)nc3c2OC2CCNCC2)c1 [Compound 23, 4-[7-(5-Methoxy-pyridin-3-yl)-8-(piperidin-4-yloxy)-quinazolin-2-ylamino]-benzenesulfonamlde] | < 5 | < 5 |  | 5 to 10 |
| CN1CCC(Oc2cccc3cnc(Nc4ccc(S(N)(=O)=O)cc4)nc23)CC1 [Compound 35, 4-[8-(1-Methyl-piperidin-4-yloxy)-quinazolin-2-ylamino]-benzenesulfonamide] | < 5 | < 5 |  | < 5 |
| CC(C)Cn1cc(-c2ccc3cnc(Nc4ccc(S(N)(=O)=O)cc4)nc3c2OC2CCNCC2)cn1 [Compound 65] | < 5 | < 5 |  | 5 to 10 |
| NS(=O)(=O)c1ccc(Nc2ncc3ccc(-c4cnccn4)c(OC4CCNCC4)c3n2)cc1 [Compound 66, 4-[8-(Piperidin-4-yloxy)-7-pyrazin-2-yl-quinazolin-2-ylamino]-benzenesulfonamide] | < 5 | < 5 |  | 5 to 10 |
| CCN1CCC(Oc2cccc3cnc(Nc4ccc(S(N)(=O)=O)cc4)nc23)CC1 [Compound 46, 4-[8-(1-Ethyl-piperidin-4-yloxy)-quinazolin-2-ylamino]-benzenesulfonamide] | < 5 | < 5 |  | 5 to 10 |
| COc1cncc(-c2ccc3cnc(Nc4ccc(S(N)(=O)=O)cc4)nc3c2)c1 [Compound 138, 4-[7-(5-Methoxy-pyridin-3-yl)-quinazolin-2-ylamino]-benzenesulfonamide] | < 5 | < 5 |  | 5 to 10 |
| Nc1ccc(-c2ccc3cnc(Nc4ccc(S(N)(=O)=O)cc4)nc3c2OC2CCNCC2)cn1 [Compound 21, 4-[7-(6-Amino-pyridin-3-yl)-8-(piperidin-4-yloxy)-quinazolin-2-ylamino]-benzenesulfonamide] | < 5 | < 5 |  | 5 to 10 |
| CNC(=O)c1ccc(Nc2ncc3cccc(OC4CCN(C(C)C)CC4)c3n2)cc1 [Compound 43, 4-[8-(1-Isopropyl-piperidin-4-yloxy)-quinazolin-2-ylamino]-N-methyl-benzamide] | < 5 | < 5 |  | < 5 |
| Cn1cc(-c2ccc3cnc(Nc4ccc(S(N)(=O)=O)cc4)nc3c2OC2CCNCC2)cn1 [Compound 25, 4-[7-(1-Methyl-1H-pyrazol-4-yl)-8-(piperidin-4-yloxy)-quinazolin-2-ylamino]-benzenesulfonamide] | < 5 | < 5 |  | 5 to 10 |
